Laboratory results taken from patent publication US7262185B2, “Benzazepine derivative, process for producing the same, and use” (Takeda Chemical Industries Ltd., priority 2001, dated 2007).

For CCCCOCCOc1ccc(-c2ccc3c(c2)C=C(C(=O)Nc2ccc([S+]([O-])CCn4cnnc4)cc2)CCN3CC(C)C)cc1 (centres unmarked) [Compound 155, 7-[4-(2-butoxyethoxy)phenyl]-N-[4-(4H-1,2,4-triazol-4-ylethylsulfinyl)phenyl]-1-isobutyl-2,3-dihydro-1H-benzazepine-4-carboxamide], the melting point was 168 to 170 °C.
For CCCCOCCOc1ccc(-c2ccc3c(c2)C=C(C(=O)Nc2ccc(C(O)c4c(C)ccc[n+]4[O-])cc2)CCN3C(=O)C(F)(F)F)cc1 (centres unmarked) [Compound 100, 7-[4-(2-butoxyethoxy)phenyl]-N-[4-[hydroxy(3-methyl-1-oxidopyridin-2-yl)methyl]phenyl]-1-trifluoroacetyl-2,3-dihydro-1H-1-benzazepine-4-carboxamide], the melting point was 109 to 112 °C.
With CCCCOCCOc1ccc(-c2ccc3c(c2)C=C(C(=O)Nc2ccc([S+]([O-])Cc4ncnn4C)cc2)CCN3CC(C)C)cc1 (centres unmarked) [Compound 124, 7-[4-(2-butoxyethoxy)phenyl]-N-[4-(1-methyl-1H-1,2,4-triazol-5-ylmethylsulfinyl)phenyl]-1-isobutyl-2,3-dihydro-1H-1-benzazepine-4-carboxamide] the melting point was 135 to 138 °C.
For CCCCOCCOc1ccc(-c2ccc3c(c2)C=C(C(=O)Nc2ccc([C@H](O)c4ccccn4)cc2)CCN3C(=O)C(F)(F)F)cc1 [Compound 79, 7-[4-(2-butoxyethoxy)phenyl]-N-[4-[(S)-hydroxy(2-pyridyl)methyl]phenyl]-1-trifluoroacetyl-2,3-dihydro-1H-1-benzazepine-4-carboxamide], the melting point was 100 to 102 °C.
For CCCCOCCOc1ccc(-c2ccc3c(c2)C=C(C(=O)Nc2ccc([C@H](O)c4cccc[n+]4[O-])cc2)CCN3Cc2nccs2)cc1 [Compound 86, 7-[4-(2-butoxyethoxy)phenyl]-N-[4-[(S)-hydroxy(1-oxidopyridin-2-yl)methyl]phenyl]-1-(thiazol-2-ylmethyl)-2,3-dihydro-1H-1-benzazepine-4-carboxamide], the melting point was 164 to 165 °C.
CCCCOCCOc1ccc(-c2ccc3c(c2)C=C(C(=O)Nc2ccc([C@H](O)c4cccc[n+]4[O-])cc2)CCN3Cc2ccccc2)cc1 [Compound 90, 1-benzyl-7-[4-(2-butoxyethoxy)phenyl]-N-[4-[(S)-hydroxy(1-oxidopyridin-2-yl)methyl]phenyl]-2,3-dihydro-1H-1-benzazepine-4-carboxamide] showed a melting point of 89 to 93 °C.
For CCCCOCCOc1ccc(-c2ccc3c(c2)C=C(C(=O)Nc2ccc([S+]([O-])Cc4cncn4CC(N)=O)cc2)CCN3CC(C)C)cc1 (centres unmarked) [Compound 430, N-[4-[[[1-(2-amino-2-oxoethyl)-1H-imidazol-5-yl]methyl]sulfinyl]phenyl]-7-[4-(2-butoxyethoxy)phenyl]-1-isobutyl-2,3-dihydro-1H-1-benzazepine-4-carboxamide], the melting point was 123 to 125 °C.
Work on CCCCOCCOc1ccc(-c2ccc3c(c2)C=C(C(=O)Nc2ccc(C(O)c4cccc[n+]4[O-])c(Cl)c2)CCN3CC(C)C)cc1 (centres unmarked) [Compound 6, 7-[4-(2-butoxyethoxy)phenyl]-N-[3-chloro-4-[hydroxy(1-oxidopyridin-2-yl)methyl]phenyl]-1-isobutyl-2,3-dihydro-1H-1-benzazepine-4-carboxamide] yielded a melting point of 105 to 107 °C.
For CCCCOCCOc1ccc(-c2ccc3c(c2)C=C(C(=O)Nc2ccc(C(O)c4cc(C)cc[n+]4[O-])cc2)CCN3)cc1 (centres unmarked) [Compound 1, 7-[4-(2-butoxyethoxy)phenyl]-N-[4-[hydroxy(4-methyl-1-oxidopyridin-2-yl)methyl]phenyl]-2,3-dihydro-1H-1-benzazepine-4-carboxamide], the melting point was 198 to 201 °C (dec.).
In the case of CCCCOCCOc1ccc(-c2ccc3c(c2)C=C(C(=O)Nc2ccc(Sc4cccc5nc(C)cn45)cc2)CCN3CC(C)C)cc1 [Compound 170, 7-[4-(2-butoxyethoxy)phenyl]-1-isobutyl-N-[4-(2-methylimidazo[1,2-a]pyridin-5-ylthio)phenyl]-2,3-dihydro-1H-benzazepine-4-carboxamide], the melting point is reported as 164 to 166 °C.
Work on CCCCOCCOc1ccc(-c2ccc3c(c2)C=C(C(=O)Nc2ccc([S+]([O-])Cc4nncn4CCCC)cc2)CCN3CCC)cc1 (centres unmarked) [Compound 145, 7-[4-(2-butoxyethoxy)phenyl]-N-[4-(4-n-butyl-4H-1,2,4-triazol-3-ylmethylsulfinyl)phenyl]-1-propyl-2,3-dihydro-1H-benzazepine-4-carboxamide] yielded a melting point of 157 to 160 °C.
With CCCCOCCOc1ccc(-c2ccc3c(c2)C=C(C(=O)Nc2ccc([S+]([O-])Cc4ncn(C)n4)cc2)CCN3CC(C)C)cc1 (centres unmarked) [Compound 126, 7-[4-(2-butoxyethoxy)phenyl]-1-isobutyl-N-[4-(1-methyl-1H-1,2,4-triazol-3-ylmethylsulfinyl)phenyl]-2,3-dihydro-1H-benzazepine-4-carboxamide] the melting point was 112 to 114 °C.
With CCCCOCCOc1ccc(-c2ccc3c(c2)C=C(C(=O)Nc2ccc(/C(Cc4nccn4CCC)=N/OC)cc2)CCN3CC(C)C)cc1 [Compound 448, 7-[4-(2-butoxyethoxy)phenyl]-1-isobutyl-N-[4-((1E)-N-methoxy-2-(1-propylimidazol-2-yl)ethanimidoyl)phenyl]-2,3-dihydro-1H-1-benzazepine-4-carboxamide] the melting point was 159 to 161 °C.
For CCCCOCCOc1ccc(-c2ccc3c(c2)C=C(C(=O)Nc2ccc(C/C(=N/O)c4nccn4CCC)cc2)CCN3CC(C)C)cc1 [Compound 453, 7-[4-(2-butoxyethoxy)phenyl]-N-[4-((2Z)-2-(hydroxyimino)-2-(1-propylimidazol-2-yl)ethyl)phenyl]-1-isobutyl-2,3-dihydro-1H-1-benzazepine-4-carboxamide], the melting point was 187.5 to 189.5 °C.
Molecule CCCCOCCOc1ccc(-c2ccc3c(c2)C=C(C(=O)Nc2ccc([S+]([O-])Cc4nncn4C)cc2)CCN3CC(C)C)cc1 (centres unmarked) [Compound 131, 7-[4-(2-butoxyethoxy)phenyl]-N-[4-(4-methyl-4H-1,2,4-triazol-3-ylmethylsulfinyl)phenyl]-1-isobutyl-2,3-dihydro-1H-1-benzazepine-4-carboxamide] has a melting point of 103 to 105 °C.
With CCCCOCCOc1ccc(-c2ccc3c(c2)C=C(C(=O)Nc2ccc(C(O)c4cccc(C)[n+]4[O-])cc2)CCN3)cc1 (centres unmarked) [Compound 97, 7-[4-(2-butoxyethoxy)phenyl]-N-[4-[hydroxy(6-methyl-1-oxidopyridin-2-yl)methyl]phenyl]-2,3-dihydro-1H-1-benzazepine-4-carboxamide] the melting point was 175 to 177 °C.
CCCCOCCOc1ccc(-c2ccc3c(c2)C=C(C(=O)Nc2ccc([C@H](O)c4ccccn4)cc2)CCN3C=O)cc1 [Compound 75, 7-[4-(2-butoxyethoxy)phenyl]-1-formyl-N-[4-[(S)-hydroxy(2-pyridyl)methyl]phenyl]-2,3-dihydro-1H-1-benzazepine-4-carboxamide] gave a melting point of 130 to 134 °C.
CCCCOCCOc1ccc(-c2ccc3c(c2)C=C(C(=O)Nc2ccc([C@H](O)c4cccc[n+]4[O-])cc2)CCN3CC2CC2)cc1 [Compound 84, 7-[4-(2-butoxyethoxy)phenyl]-1-cyclopropylmethyl-N-[4-[(S)-hydroxy(1-oxidopyridin-2-yl)methyl]phenyl]-2,3-dihydro-1H-1-benzazepine-4-carboxamide] showed a melting point of 85 to 88 °C.
For CCCCOCCOc1ccc(-c2ccc3c(c2)C=C(C(=O)Nc2ccc(C(O)c4cccc[n+]4[O-])c(OC)c2)CCN3)cc1 (centres unmarked) [Compound 3, 7-[4-(2-butoxyethoxy)phenyl]-N-[4-[hydroxy(1-oxidopyridin-2-yl)methyl]-3-methoxyphenyl]-2,3-dihydro-1H-1-benzazepine-4-carboxamide], the melting point was 116 to 118 °C.
In the case of CCCCOCCOc1ccc(-c2ccc3c(c2)C=C(C(=O)Nc2ccc([S+]([O-])CCc4nncn4CCC)cc2)CCN3CCC)cc1 (centres unmarked) [Compound 52, 7-[4-(2-butoxyethoxy)phenyl]-1-propyl-N-[4-[2-(4-propyl-4H-1,2,4-triazol-3-yl)ethylsulfinyl]phenyl]-2,3-dihydro-1H-1-benzazepine-4-carboxamide], the melting point is reported as 93 to 101 °C.
For CCCCOCCOc1ccc(-c2ccc3c(c2)C=C(C(=O)Nc2ccc(C(O)c4ccc(Cl)c[n+]4[O-])cc2)CCN3C(=O)C(F)(F)F)cc1 (centres unmarked) [Compound 108, 7-[4-(2-butoxyethoxy)phenyl]-N-[4-[hydroxy(5-chloro-1-oxidopyridin-2-yl)methyl]phenyl]-1-trifluoroacetyl-2,3-dihydro-1H-1-benzazepine-4-carboxamide], the melting point was 200 to 203 °C.
Work on CCCCOCCOc1ccc(-c2ccc3c(c2)C=C(C(=O)Nc2ccc(C(O)c4ncccc4OCCC)cc2)CCN3C(=O)C(F)(F)F)cc1 (centres unmarked) [Compound 111, 7-[4-(2-butoxyethoxy)phenyl]-N-[4-[hydroxy(3-propoxypyridin-2-yl)methyl]phenyl]-1-trifluoroacetyl-2,3-dihydro-1H-1-benzazepine-4-carboxamide] yielded a melting point of 154 to 157 °C.
CCCCOCCOc1ccc(-c2ccc3c(c2)C=C(C(=O)Nc2ccc([S+]([O-])Cc4ncon4)cc2)CCN3CC(C)C)cc1 (centres unmarked) [Compound 129, 7-[4-(2-butoxyethoxy)phenyl]-1-isobutyl-N-[4-(1,2,4-oxadiazol-3-ylmethylsulfinyl)phenyl]-2,3-dihydro-1H-benzazepine-4-carboxamide] gave a melting point of 142 to 144 °C.
Molecule CCCCOCCOc1ccc(-c2ccc3c(c2)C=C(C(=O)Nc2ccc(S(=O)(=O)Cc4ncn(C)n4)cc2)CCN3CC(C)C)cc1 [Compound 127, 7-[4-(2-butoxyethoxy)phenyl]-1-isobutyl-N-[4-(1-methyl-1H-1,2,4-triazol-3-ylmethylsulfonyl)phenyl]-2,3-dihydro-1H-benzazepine-4-carboxamide] has a melting point of 205 to 208 °C.
CCCCOCCOc1ccc(-c2ccc3c(c2)C=C(C(=O)Nc2ccc(C(O)c4c(OCCC)ccc[n+]4[O-])cc2)CCN3)cc1 (centres unmarked) [Compound 113, 7-[4-(2-butoxyethoxy)phenyl]-N-[4-[hydroxy(1-oxido-3-propoxypyridine-2-yl)methyl]phenyl]-2,3-dihydro-1H-1-benzazepine-4-carboxamide] gave a melting point of 148 to 149 °C.
In the case of CCCCOCCOc1ccc(-c2ccc3c(c2)C=C(C(=O)Nc2ccc(SCCn4cnnc4)cc2)CCN3CCC)cc1 [Compound 156, 7-[4-(2-butoxyethoxy)phenyl]-N-[4-(4H-1,2,4-triazol-4-ylethylthio)phenyl]-1-propyl-2,3-dihydro-1H-benzazepine-4-carboxamide], the melting point is reported as 114 to 115 °C.
